These results are taken from patent US11684306B2, “Stable water isotope labeling and magnetic resonance imaging for visualization of the presence of and prediction of the likelihood of occurence of rapidly dividing cells” (THE UNITED STATES OF AMERICA, AS REPRESENTED BY THE …, priority 2016, dated 2023).

Common to all, as to format: in vivo
The nature of data set [1]: Total body water (TBW) deuterium enrichment in mice. The text has this:
In one aspect, deuterium labeling was achieved by intraperitoneal injection of 100% ^2H2O with NaCl added to make this fluid isotonic, then maintaining the achieved 5% ^2H enrichment in total body water (TBW) by providing 8% ^2H2O in drinking water to mice. Deuterium within total body water diffuses rapidly into all tissues and is excreted unchanged by the kidneys. Therefore, according to various embodiments, deuterium labeled fluids may be provided to an animal or human subject via injected and/or ingested fluid yielding a deuterium concentration of about 5% TBW. […] Higher TBW enrichments (up to 20% TBW ^2H) may improve sensitivity of dMRI detection. Such enrichments should be safe, as deuterium is non-radioactive, tasteless, colorless and without known side effects at these doses.
FIG. 9 is an illustration for one embodiment of a scheme 900 for labeling and imaging rapidly dividing cells. As shown, the method begins with total body irradiation (TBI) conditioning performed one day prior to the infusion of a transplant graft (day −1), indicated as 902. In the embodiment shown, the bone marrow transplant (BMT) graft, containing bone marrow stem cells and T cells from the donor spleen, is infused on day 0, indicated as 904. […]
For measuring ^2H2O water levels in TBW (e.g. urine), we developed a simple and quantitative headspace-GC-NCI-MS method (publication pending). […]

The nature of data set [2]: Total body water (TBW) deuterium enrichment in people.
Data set [3] can be described thus: Safety of deuterium enrichment in total body water.

Take `[2H]O[2H]` [deuterated water]: the “time for TBW deuterium enrichment to return to baseline (0.015%) after supplementation is discontinued” value in data set [1] was “approximately 7 days”; in data set [2] it was about 14 days. For the same compound, the toxicity entry in data set [3] (doses up to 20% in total body water) is reported as “non-toxic”. The “safety of higher TBW enrichment” value in data set [3] (enrichments up to and including approximately 20% TBW) was “safely achieved”. Moreover, the “effect on rates of DNA synthesis” value in data set [3] (in vivo) was “does not affect rates of DNA synthesis”.
